In ChEMBL document CHEMBL3785036 (J Pharm Sci, 1974):

Tests used:
Assay type in all cases: ADME, organism-based
[1] = Drug excretion in human subject slow inactivator assessed as sum of isoniazid plus hydrazones, acetylisoniazid, isonicotinic acid and isonicotinuric acid level in urine at 681 mg, iv infused at constant rate 5.4 min measured 496 mins after start of drug injection by colorimetry; details: in vivo
[2] = Drug excretion in human subject slow inactivator assessed as sum of isoniazid plus hydrazones, acetylisoniazid, isonicotinic acid and isonicotinuric acid level in urine at 681 mg, iv infused at constant rate 5.4 min measured 586 mins after start of drug injection by colorimetry; details: in vivo
[3] = Drug excretion in human subject slow inactivator assessed as sum of isoniazid plus hydrazones, acetylisoniazid, isonicotinic acid and isonicotinuric acid level in urine at 681 mg, iv infused at constant rate 5.4 min measured 648 mins after start of drug injection by colorimetry; details: in vivo
[4] = Drug excretion in human subject slow inactivator assessed as sum of isoniazid plus hydrazones, acetylisoniazid, isonicotinic acid and isonicotinuric acid level in urine at 681 mg, iv infused at constant rate 5.4 min measured 677 mins after start of drug injection by colorimetry; details: in vivo
[5] = Drug excretion in human subject slow inactivator assessed as sum of isoniazid plus hydrazones, acetylisoniazid, isonicotinic acid and isonicotinuric acid level in urine at 681 mg, iv infused at constant rate 5.4 min measured 710 mins after start of drug injection by colorimetry; details: in vivo
[6] = Drug excretion in human subject slow inactivator assessed as sum of isoniazid plus hydrazones, acetylisoniazid, isonicotinic acid and isonicotinuric acid level in urine at 681 mg, iv infused at constant rate 5.4 min measured 747 mins after start of drug injection by colorimetry; details: in vivo, 12.45 h
[7] = Drug excretion in human subject slow inactivator assessed as total isonicotinoyl compound level in urine at 681 mg, iv infused at constant rate 5.4 min measured 35.5 mins after start of drug injection by colorimetry; details: in vivo
[8] = Drug excretion in human subject slow inactivator assessed as total isonicotinoyl compound level in urine at 681 mg, iv infused at constant rate 5.4 min measured 150 mins after start of drug injection by colorimetry; details: in vivo, 2.5 h
[9] = Drug excretion in human subject slow inactivator assessed as total isonicotinoyl compound level in urine at 681 mg, iv infused at constant rate 5.4 min measured 208.7 mins after start of drug injection by colorimetry; details: in vivo, 3.47833 h
[10] = Drug excretion in human subject slow inactivator assessed as total isonicotinoyl compound level in urine at 681 mg, iv infused at constant rate 5.4 min measured 276.3 mins after start of drug injection by colorimetry; details: in vivo, 4.605 h
[11] = Drug excretion in human subject slow inactivator assessed as total isonicotinoyl compound level in urine at 681 mg, iv infused at constant rate 5.4 min measured 339.3 mins after start of drug injection by colorimetry; details: in vivo, 5.655 h
[12] = Drug excretion in human subject slow inactivator assessed as total isonicotinoyl compound level in urine at 681 mg, iv infused at constant rate 5.4 min measured 524 mins after start of drug injection by colorimetry; details: in vivo
[13] = Drug excretion in human subject slow inactivator assessed as total isonicotinoyl compound level in urine at 681 mg, iv infused at constant rate 5.4 min measured 613 mins after start of drug injection by colorimetry; details: in vivo
[14] = Drug excretion in human slow inactivators urine assessed as isoniazid plus hydrazones level at 1 g, iv by colorimetry; details: in vivo
[15] = Drug metabolism in human rapid inactivators assessed as excretion of alpha-ketoglutaric acid isonicotinoylhydrazone in urine at 1 g, iv by colorimetry; details: in vivo
[16] = Drug metabolism in human rapid inactivators assessed as excretion of acetylisoniazid in urine at 1 g, iv by colorimetry; details: in vivo
[17] = Drug metabolism in human rapid inactivators assessed as excretion of isonicotinic acid in urine at 1 g, iv by colorimetry; details: in vivo
[18] = Drug metabolism in human rapid inactivators assessed as excretion of isonicotinuric acid in urine at 1 g, iv by colorimetry; details: in vivo
[19] = Drug metabolism in human slow inactivators assessed as excretion of pyruvic acid isonicotinoylhydrazone in urine at 1 g, iv by colorimetry; details: in vivo
[20] = Drug metabolism in human slow inactivators assessed as excretion of alpha-ketoglutaric acid isonicotinoylhydrazone in urine at 1 g, iv by colorimetry; details: in vivo
[21] = Drug metabolism in human slow inactivators assessed as excretion of acetylisoniazid in urine at 1 g, iv by colorimetry; details: in vivo
[22] = Drug excretion in human subject slow inactivator assessed as total isonicotinoyl compound level in urine at 681 mg, iv infused at constant rate 5.4 min measured 648 mins after start of drug injection by colorimetry; details: in vivo, 10.8 h
[23] = Drug excretion in human subject slow inactivator assessed as total isonicotinoyl compound level in urine at 681 mg, iv infused at constant rate 5.4 min measured 677 mins after start of drug injection by colorimetry; details: in vivo
[24] = Drug excretion in human subject slow inactivator assessed as total isonicotinoyl compound level in urine at 681 mg, iv infused at constant rate 5.4 min measured 710 mins after start of drug injection by colorimetry; details: in vivo
[25] = Drug excretion in human subject slow inactivator assessed as total isonicotinoyl compound level in urine at 681 mg, iv infused at constant rate 5.4 min measured 747 mins after start of drug injection by colorimetry; details: in vivo, 12.45 h
[26] = Drug excretion in human subject rapid inactivator assessed as sum of isoniazid plus hydrazones, acetylisoniazid, isonicotinic acid and isonicotinuric acid level in urine at 670 mg, iv infused at constant rate 5.2min measured 126 mins after start of drug injection by colorimetry; details: in vivo, 2.1 h
[27] = Drug excretion in human subject rapid inactivator assessed as sum of isoniazid plus hydrazones, acetylisoniazid, isonicotinic acid and isonicotinuric acid level in urine at 670 mg, iv infused at constant rate 5.2min measured 158 mins after start of drug injection by colorimetry; details: in vivo
[28] = Drug excretion in human subject rapid inactivator assessed as sum of isoniazid plus hydrazones, acetylisoniazid, isonicotinic acid and isonicotinuric acid level in urine at 670 mg, iv infused at constant rate 5.2min measured 259 mins after start of drug injection by colorimetry; details: in vivo
[29] = Drug excretion in human subject rapid inactivator assessed as sum of isoniazid plus hydrazones, acetylisoniazid, isonicotinic acid and isonicotinuric acid level in urine at 670 mg, iv infused at constant rate 5.2min measured 335 mins after start of drug injection by colorimetry; details: in vivo
[30] = Drug excretion in human subject rapid inactivator assessed as total isonicotinoyl compound level in urine at 670 mg, iv infused at constant rate 5.2min measured 32 mins after start of drug injection by colorimetry; details: in vivo
[31] = Drug excretion in human subject rapid inactivator assessed as total isonicotinoyl compound level in urine at 670 mg, iv infused at constant rate 5.2min measured 94 mins after start of drug injection by colorimetry; details: in vivo
[32] = Drug excretion in human subject rapid inactivator assessed as total isonicotinoyl compound level in urine at 670 mg, iv infused at constant rate 5.2min measured 195 mins after start of drug injection by colorimetry; details: in vivo, 3.25 h
[33] = Drug excretion in human subject rapid inactivator assessed as total isonicotinoyl compound level in urine at 670 mg, iv infused at constant rate 5.2min measured 296 mins after start of drug injection by colorimetry; details: in vivo

NNC(=O)c1ccncc1 [ISONIAZID]
Drug excretion [1]: 14.26 mg | Drug excretion [2]: 13.18 mg | Drug excretion [3]: 12.82 mg | Drug excretion [4]: 11.396 mg | Drug excretion [5]: 10.68 mg | Drug excretion [6]: 10.074 mg | Drug excretion [7]: 50.1 mg | Drug excretion [8]: 38.1 mg | Drug excretion [9]: 27.1 mg | Drug excretion [10]: 33.2 mg | Drug excretion [11]: 32 mg | Drug excretion [12]: 10.4 mg | Drug excretion [13]: 12.2 mg | Drug excretion [14]: 98% | Drug metabolism [15]: 1.4 %molar | Drug metabolism [16]: 43.8 %molar | Drug metabolism [17]: 27.1 %molar | Drug metabolism [18]: 21.3 %molar | Drug metabolism [19]: 13.9 %molar | Drug metabolism [20]: 6.9 %molar | Drug metabolism [21]: 34.3 %molar | Drug excretion [22]: 11.6 mg | Drug excretion [23]: 10.6 mg | Drug excretion [24]: 9.25 mg | Drug excretion [25]: 9.44 mg | Drug excretion [26]: 42.3 mg | Drug excretion [27]: 49.9 mg | Drug excretion [28]: 40.5 mg | Drug excretion [29]: 29 mg | Drug excretion [30]: 45.9 mg | Drug excretion [31]: 51.8 mg | Drug excretion [32]: 59.9 mg | Drug excretion [33]: 42.1 mg
